Measurements published in ChEMBL document CHEMBL1150485, “Rapid synthesis and properties of ()-6-Deoxy-6-fluoro-myo-inositol-1,4,5-tris(phosphate) an analogue of myo-inositol-1,4,5-tris(phosphate)” (Bioorg Med Chem Lett, 1996).

Species on record: Bos taurus
Test: Binding affinity on adrenal cortex microsomes
Format: functional

| Kd [nM] | SMILES |
| --- | --- |
| 10 | O=P(O)(O)O[C@@H]1[C@H](O)[C@H](O)[C@@H](OP(=O)(O)O)[C@H](OP(=O)(O)O)[C@H]1O [INS(1,4,5)P3] |
| 4000 | O=P(O)(O)O[C@@H]1CC[C@@H](OP(=O)(O)O)[C@H](OP(=O)(O)O)C1 |
| 1600 | O=P(O)(O)O[C@@H]1[C@H](O)[C@H](O)[C@@H](OP(=O)(O)O)[C@H](OP(=O)(O)O)[C@H]1F |
